# Assay results as given in patent US20220041616A1, “SPIRO COMPOUND AND MEDICAL USES THEREOF” (The National Institutes of Pharmaceutical R&D Co., Ltd., priority 2018, published 2022).
# Target: T1, Pyruvate Carboxylase (PC) (Bos taurus, UniProt Q29RK2)
# T1 construct: purchased Sigma
# T1 sequence (Q29RK2 21-1178): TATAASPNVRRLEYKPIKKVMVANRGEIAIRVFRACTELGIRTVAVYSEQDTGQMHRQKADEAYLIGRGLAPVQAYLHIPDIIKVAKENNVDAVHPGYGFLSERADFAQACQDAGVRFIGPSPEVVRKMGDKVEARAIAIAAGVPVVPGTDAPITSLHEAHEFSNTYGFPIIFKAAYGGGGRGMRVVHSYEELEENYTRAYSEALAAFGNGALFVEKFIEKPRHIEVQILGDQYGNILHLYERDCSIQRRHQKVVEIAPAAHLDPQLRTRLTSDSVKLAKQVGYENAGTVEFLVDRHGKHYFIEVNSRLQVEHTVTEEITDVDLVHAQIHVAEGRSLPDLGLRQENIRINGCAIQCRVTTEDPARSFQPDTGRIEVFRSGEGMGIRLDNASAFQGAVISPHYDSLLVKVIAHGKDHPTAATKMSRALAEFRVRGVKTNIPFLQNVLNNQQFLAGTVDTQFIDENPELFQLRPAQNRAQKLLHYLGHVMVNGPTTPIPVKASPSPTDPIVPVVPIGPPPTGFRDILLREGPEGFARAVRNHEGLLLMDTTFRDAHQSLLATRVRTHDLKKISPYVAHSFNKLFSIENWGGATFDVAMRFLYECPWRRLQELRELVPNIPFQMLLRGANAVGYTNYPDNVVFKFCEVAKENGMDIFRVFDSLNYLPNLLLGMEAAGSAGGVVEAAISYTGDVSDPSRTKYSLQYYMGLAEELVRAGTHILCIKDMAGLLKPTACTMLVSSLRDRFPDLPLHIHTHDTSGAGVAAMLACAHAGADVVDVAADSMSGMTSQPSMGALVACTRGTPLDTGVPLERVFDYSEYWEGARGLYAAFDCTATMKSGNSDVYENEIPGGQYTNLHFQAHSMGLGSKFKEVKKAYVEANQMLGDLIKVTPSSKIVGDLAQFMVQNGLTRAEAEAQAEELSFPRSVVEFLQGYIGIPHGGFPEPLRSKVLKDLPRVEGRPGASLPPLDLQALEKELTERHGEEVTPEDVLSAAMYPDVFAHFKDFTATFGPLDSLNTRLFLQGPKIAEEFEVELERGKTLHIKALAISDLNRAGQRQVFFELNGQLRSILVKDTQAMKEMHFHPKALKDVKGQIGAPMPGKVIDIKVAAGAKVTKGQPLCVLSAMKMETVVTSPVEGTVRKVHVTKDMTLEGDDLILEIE
# Assay: In vitro inhibition of pyruvate carboxylase (PC) activity, coupling method
# Assay type: biochemical
# Conditions: top concentration 50 μM
# Method: The in vitro analysis of the inhibitory effect of the present compound on PC activity was carried out by a coupling method. The PC reaction product oxaloacetate and β-NADH undergo a redox reaction under the catalysis of malate dehydrogenase, generating malic acid and NAD^+. Accordingly, the inhibition ability of the compound on PC can be reflected by detecting the change of absorbance value at 340 nm.
# b. 65.7 μL PC enzyme reaction buffer (201 mM triethanolamine, 7.5 mM magnesium sulfate, 0.18% bovine serum albumin) was added to each well of a 96-well dilution plate (249944, Nunc), and then 1 μL of the serially diluted compound to be tested in step a was added to each well.
# c. 10 μL of compound (prepared in step b) was added to each well of a 384-well test plate (3702, Corning). The reaction system with ZnCl2 at a final concentration of 500 μM was used as positive control; the reaction system with no compound but DMSO at a final concentration of 0.5% was used as negative control.
# d. 10 μL of PC enzyme (Sigma, 0.15 U/ml stock solution of PC enzyme dissolved in 0.15 mM Tris-HCl pH 7.4, 0.006 mM Mg(AcO)2, 0.15% glycerol, and 0.003 mM EDTA) was added to each well of the 384-well test plate (prepared in step c), centrifuged at 1000 rpm for 1 min, and incubated at room temperature for 15 min.
# e. 10 μL of substrate mixture (1.5 mM sodium pyruvate, 1.5 mM ATP, 0.15 mM acetyl-CoA, 45 mM sodium bicarbonate, 0.69 mM NADH, 3 U/ml malate dehydrogenase, 201 mM triethanolamine, 7.5 mM magnesium sulfate, and 0.18% bovine serum albumin) was added to each well of the 384-well test plate (prepared in step d), and centrifuged at 1000 rpm for 1 min. The final concentrations of each component in the PC enzymatic reaction system: 0.05 U/ml pyruvate carboxylase, 0.5 mM sodium pyruvate, 0.5 mM ATP, 15 mM sodium bicarbonate, 0.23 mM β-NADH, 1 U/ml malic acid dehydrogenase, and 0.05 mM acetyl-CoA. Test compound concentrations: 50 μM, 16.667 μM, 5.556 μM, 1.852 μM, 0.617 μM, 0.206 μM, 0.0686 μM, 0.0229 μM, 0.00763 μM, 0.00254 μM, 0.000847 μM and 0.000282 μM. The final concentration of DMSO was 0.5% (v/v).
# f. The absorbance at 340 nm was read by using EnVision 2104 plate reader (Perkin Elmer) with reading every 1 min for 40 min.
# GraphPad Prism 6 software was used to perform a linear fit, and the concentration of each compound and the slope of the positive and negative controls were calculated. The inhibition percentage was calculated according to the following formula: 100×[1−(compound−average value of positive control)/(average value of negative control−average value of positive control)].
# IC50 of the compound was obtained using GraphPad Prism 6 software according to the following nonlinear fitting formula:
# Y=Bottom+(Top−Bottom)/(1+10^((Log IC50−X)×HillSlope)), […]
row,Structure (SMILES),IC50 [µM]
1,"COc1ccccc1C(CN1C(=O)C2(CC(C(=O)O)C2)C(=O)c2c1sc(-c1ncco1)c2C)OC1CCOCC1 (mixture of isomers) [Compound 8, 7′-(2-(2-methoxyphenyl)-2-((tetrahydro-2H-pyran-4-yl)oxy)ethyl)-3′-methyl-2′-(oxazol-2-yl)-4′,6′-dioxo-6′,7′-dihydro-4′H-spiro[cyclobutane-1,5′-thieno[2,3-b]pyridine]-3-carboxylic Acid]",> 50
2,"COc1ccccc1C(CN1C(=O)C2(CCC(C(=O)O)C2)C(=O)c2c1sc(-c1ncco1)c2C)OC1CCOCC1 (single isomer, unassigned) [Compound 5b, 7′-(2-(2-methoxyphenyl)-2-((tetrahydro-2H-pyran-4-yl)oxy)ethyl)-3′-methyl-2′-(oxazol-2-yl)-4′,6′-dioxo-6′,7′-dihydro-4′H-spiro[cyclopentane-1,5′-thieno[2,3-b]pyridine]-3-carboxylic Acid]",> 50
3,"COc1ccccc1C(CN1C(=O)C2(CC(C(=O)O)C2)C(=O)c2c1sc(-c1ncco1)c2C)OC1CCOCC1 (single isomer, unassigned) [Compound 8d, 7′-(2-(2-methoxyphenyl)-2-((tetrahydro-2H-pyran-4-yl)oxy)ethyl)-3′-methyl-2′-(oxazol-2-yl)-4′,6′-dioxo-6′,7′-dihydro-4′H-spiro[cyclobutane-1,5′-thieno[2,3-b]pyridine]-3-carboxylic Acid]",> 50
4,"COc1ccccc1[C@H](CN1c2sc(-c3ncco3)c(C)c2C(=O)[C@]2(C[C@H](C(=O)O)C2)C1=O)OC1CCOCC1 [Compound 8c, 7′-(2-(2-methoxyphenyl)-2-((tetrahydro-2H-pyran-4-yl)oxy)ethyl)-3′-methyl-2′-(oxazol-2-yl)-4′,6′-dioxo-6′,7′-dihydro-4′H-spiro[cyclobutane-1,5′-thieno[2,3-b]pyridine]-3-carboxylic Acid]",> 50
